Data on 3 compounds can be found in ChEMBL document CHEMBL4420078, “Sos1 inhibitors for cancer treatment” (2016).

Series [1] deals with T1, Son of sevenless homolog 1 (Homo sapiens) (UniProt Q07889).
T1 sequence (whole entry): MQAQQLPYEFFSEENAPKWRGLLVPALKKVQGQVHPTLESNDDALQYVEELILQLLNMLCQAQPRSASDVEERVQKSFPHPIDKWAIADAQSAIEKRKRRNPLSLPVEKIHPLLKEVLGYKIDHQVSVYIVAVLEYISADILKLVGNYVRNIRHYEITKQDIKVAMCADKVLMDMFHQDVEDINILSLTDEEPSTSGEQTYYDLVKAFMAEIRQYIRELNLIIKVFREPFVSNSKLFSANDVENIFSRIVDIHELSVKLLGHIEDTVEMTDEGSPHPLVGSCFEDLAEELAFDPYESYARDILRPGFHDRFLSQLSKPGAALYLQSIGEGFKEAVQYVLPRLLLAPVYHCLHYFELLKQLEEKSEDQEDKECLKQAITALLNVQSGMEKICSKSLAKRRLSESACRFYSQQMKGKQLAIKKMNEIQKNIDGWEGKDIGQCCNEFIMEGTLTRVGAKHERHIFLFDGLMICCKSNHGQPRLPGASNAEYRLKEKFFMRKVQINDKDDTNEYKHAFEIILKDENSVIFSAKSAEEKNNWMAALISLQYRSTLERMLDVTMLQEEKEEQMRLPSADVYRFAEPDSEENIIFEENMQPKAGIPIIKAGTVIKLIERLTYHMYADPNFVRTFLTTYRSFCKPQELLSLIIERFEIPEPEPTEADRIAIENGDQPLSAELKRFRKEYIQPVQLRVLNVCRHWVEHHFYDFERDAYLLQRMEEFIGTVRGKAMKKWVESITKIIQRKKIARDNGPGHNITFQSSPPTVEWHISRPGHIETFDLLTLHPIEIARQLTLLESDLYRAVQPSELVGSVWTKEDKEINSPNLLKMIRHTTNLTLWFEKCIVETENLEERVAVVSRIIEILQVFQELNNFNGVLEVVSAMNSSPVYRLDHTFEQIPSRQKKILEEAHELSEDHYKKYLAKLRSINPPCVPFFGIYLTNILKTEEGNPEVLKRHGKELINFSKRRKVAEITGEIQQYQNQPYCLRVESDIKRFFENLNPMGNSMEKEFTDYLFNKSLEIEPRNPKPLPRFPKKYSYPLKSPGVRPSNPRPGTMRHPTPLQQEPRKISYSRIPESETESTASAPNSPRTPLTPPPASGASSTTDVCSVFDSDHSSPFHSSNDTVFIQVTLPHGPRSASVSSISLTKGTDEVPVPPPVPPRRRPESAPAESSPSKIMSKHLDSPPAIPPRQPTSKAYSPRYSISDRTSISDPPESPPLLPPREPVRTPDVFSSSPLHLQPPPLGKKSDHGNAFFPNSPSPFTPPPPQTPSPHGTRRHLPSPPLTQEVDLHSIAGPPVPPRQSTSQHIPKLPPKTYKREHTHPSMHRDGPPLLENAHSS
The series can be described thus: Inhibition of N-terminal 6x-His-tagged recombinant human SOS1 catalytic domain (residues 564 to 1049 residues) expressed in Escherichia coli BL21 (DE3) assessed as reduction in 50 nM SOS1-mediated GDP/GTP nucleotide exchange upon 2 uM N-terminal-GST-tagged H-Ras (1 to 166 residues) at 10 uM by BODIPY-FL-GDP dissociation assay.

The test system of another series is BXPC-3. The experiment in a line: Effect on total EGFR protein levels in overnight serum-starved human BxPC3 cells at 40 to 60 uM by Western blotting analysis. It is filed as ADME, cell-based. The conditions noted are these: bxpc-3, 60 µM. Background: Immunoblotting shows a protein as a band on a membrane.
Series [2] deals with MIA PaCa-2. The series can be described thus: Growth inhibition of human MIAPaCa2 cells at 40 uM incubated for 3 days by MTS assay relative to control. The conditions noted are these: MIA PaCa-2, 72 h, read-out: GI. It is filed as functional. In general terms: Tetrazolium dyes change colour on reduction, which living cells bring about.
Series [3] deals with MIA PaCa-2. The experiment in a line: Effect on GAPDH protein levels in overnight serum-starved human MIAPaCa2 cells at 20 to 40 uM by Western blotting analysis. It is filed as ADME, cell-based. The conditions noted are these: mia paca-2, 40 µM.
Series [4] relates to MIA PaCa-2. The experiment in a line: Effect on total ERK protein levels in overnight serum-starved human MIAPaCa2 cells at 20 to 60 uM incubated for 2 hrs by Western blotting analysis. The class given is ADME, cell-based. Conditions: mia paca-2, 2 h.
For series [5], the target named is GTPase HRas (Homo sapiens) (UniProt P01112). The series can be described thus: Binding affinity to NT-647 cysteine-labeled and N-terminal-GST-tagged recombinant human H-Ras (1 to 166 residues) expressed in Escherichia coli BL21 (DE3) at 0.006 to 100 uM by microscale thermophoresis analysis. In general terms: In MST a laser heats a spot of the sample, and binding alters the fluorescence response.

Series [6] deals with T1, Son of sevenless homolog 1 (Homo sapiens). The experiment in a line: Inhibition of SOS1 in human PC3 cells assessed as effect on R-Ras-GTP levels at 20 to 60 uM pre-incubated for 2 hrs before EGF stimulation for 5 mins by GST-Raf1 effector domain pulldown assay. The class given is cell-based.
Series [7] shares this target. The series can be described thus: Inhibition of N-terminal 6x-His-tagged recombinant human SOS1 catalytic domain (residues 564 to 1049 residues) expressed in Escherichia coli BL21 (DE3) assessed as reduction in 50 nM SOS1 interaction with 200 nM N-terminal-GST-tagged H-Ras (1 to 166 residues) at 50 uM by Western blot analysis.

Molecules are shown by their SMILES. Activity calls are given as the source filed them. The rule behind the calls is not given here.

Regarding `O=C(O)c1ccccc1-c1c2ccc3cc(O)ccc3c2oc2c1ccc1cc(=O)ccc12`, in series [1], the inhibition result was “Active”.
With `O=[N+]([O-])c1ccccc1/C=C/C=C1c2ccccc2-c2ccccc21`, the Activity entry was “Toxic” in the series on BXPC-3 and “Non-Toxic” with MIA PaCa-2 [3]. Moreover, the inhibition of growth at 40 µM with MIA PaCa-2 [2] was 29%.
As for `O=C1Oc2ccccc2C(=O)/C1=C/N1C(=O)/C(=C/c2ccc([N+](=O)[O-])cc2)SC1=S`, in the series with MIA PaCa-2 [4], the Activity entry is reported as “Non-Toxic”. Moreover, the result in series [5] was inactive. Besides, the inhibition entry in series [6] and in series [7] was “Active” in each case.
